From patent publication US20240270811A1, “Glycosylated Neuropeptide Derivative, Pharmaceutical Composition, Intranasal/Nasal Drop Formulation, and Use of Pharmaceutical Composition” (Tokyo University of Science Foundation, priority 2021, published 2024)
Where no end group is shown, it is not given here. The star is where a group is joined. Cam = NC(=O)C*

Columns and labels:
[1] = test system: 7-week-old male ddY mouse; assay: Forced swim test (FST) after intranasal administration; format: in vivo; settings: 16% DMSO in PBS, 0.6 nmol/mouse intranasal, 20 minutes before test session
Protocol: Administration solutions were prepared by completely dissolving PAS-CPP-GLP-2 derivative (no sugar) or PAS-CPP-GLP-2 derivatives (11-sugar, 5-sugar) in DMSO and adding PBS such that the final concentration of DMSO was 16% by mass. The concentration of each GLP-2 derivative was adjusted to 0.6 nmol/4 μL.
After anesthetizing mice with isoflurane using an all-in-one small animal anesthetizer (MK-AT210D, Muromachi Kikai Co., Ltd., hereinafter the same), the solution was intranasally administered to the mice. Specifically, the intranasal administration was performed by contacting a tip of the anesthetizer to a nasal cavity in a horizontal manner such that the solution was inhaled by spontaneous respiration, by the amount of 2 μL per nose cavity, 4 μL in total (0.6 nmol/mouse). […]
A 7-week-old male ddY mouse is placed in a transparent plastic cylinder with a diameter of 18 cm and a height of 50 cm containing water at a temperature of 25° C.±1° C. to a height of 7 cm, and is allowed to swim for 15 minutes. […] The behavior of the mouse is recorded over the test session with a video camera. […] The time during which the mouse is in a state of immobility (immobility time) is measured in the first 6 minutes from the start of the test session. The existence or non-existence of anti-depressant-like effects is determined by the length of the immobility time. […]

[2] = Solubility of GLP-2/GLP-1 derivatives with respect to aqueous medium (PBS); format: physicochemical
Protocol: Samples were prepared by dispensing a Milli-Q aqueous solution of PAS-CPP-GLP-2 (no sugar), PAS-CPP-GLP-2 (5-sugar) or PAS-CPP-GLP-2 (11-sugar) to a microtube by an amount of 5 nmol/tube, 30 nmol/tube, 60 nmol/tube, 120 nmol/tube or 200 nmol/tube, and freeze-drying the same. The freeze-dried samples were added with […] of PBS (Dulbecco's Phosphate Buffered Saline; Sigma-Aldrich, herein after the same), subjected to ultrasonic treatment, and allowed to stand overnight. Thereafter, the concentration of the peptide was measured. Specifically, a supernatant obtained by centrifuging the sample suspension was subjected to the measurement of OD (280 nm) with a spectrometer (NanoDrop™ 2000c spectrometer; Thermo Fisher Scientific K.K.)
Administration solutions were prepared by mixing a PAS-CPP-GLP-2 derivative (no sugar) or a PAS-CPP-GLP-2 derivative (11-sugar) with PBS. […] The concentration of each GLP-2 derivative was adjusted to 0.6 nmol/4 μL.
(§1) The concentration of a PAS-CPP-GLP-2 derivative (no sugar) or a PAS-CPP-GLP-2 derivative (11-sugar) was adjusted to 3.0 nmol/4 μL.

[3] = Migration to central nervous system, optical imaging of brain sagittal sections (ICG-labelled derivatives); format: in vivo, mouse; settings: 3.0 nmol/4 μL intranasal
Protocol: Administration solutions were prepared by completely dissolving a PAS-CPP-GLP-2 derivative (no sugar) labelled with ICG or a PAS-CPP-GLP-2 derivative (11-sugar) labelled with ICG in DMSO, and adjusting the final concentration of DMSO to 16% by adding PBS.
as §1
After anesthetizing mice with isoflurane using an all-in-one small animal anesthetizer, the administration solutions or 16% DMSO as a control was intranasally administered to the mice by the amount of 2 μL per nose cavity, 4 μL in total.
In order to observe the migration to the brain over time, the brain was isolated 5 minutes, 10 minutes, 20 minutes, 60 minutes and 90 minutes after the intranasal administration, respectively, and subjected to infiltration fixation with 4% paraformaldehyde (4% PFA) solution overnight. Subsequently, a sagittal section with a thickness of 2 mm at the left and the right from the center of the brain was prepared using a brain matrix (RBM-2000S, ASI). The section was placed in a dish and analyzed with an optical imaging apparatus (Clairvivo OPT plus, Shimadzu Corporation) at an excitation wavelength of 785 nm, fluorescence wavelength of 849 nm, and an exposure time: 6 seconds.

[4] = Amount of migration to brain quantified by GLP-2 ELISA; format: in vivo; settings: 6.0 nmol/mouse intranasal, brain isolated 20 minutes after administration
Protocol: Mice were intranasally administered with 16% DMSO or GLP-2 derivatives (6.0 nmol/mouse). The brain was isolated 20 minutes after the administration, and homogenized with BioMasher II (Nippi, Tokyo, Japan). A sample was prepared by performing centrifugal separation by 1000×g for 15 minutes and collecting a supernatant. The amount of a GLP-2 derivative in the sample was quantified using a GLP-2 ELISA kit. Specifically, a cleaning process including filling each well of a measurement plate with a cleaning fluid (350 μL) and suctioning the cleaning fluid with a pipette was performed three times. Subsequently, a labeled antigen solution (40 μL), a sample (25 μL) and a specific antibody solution (50 μL) were added in this order to the well and mixed. The measurement plate was tightly sealed and allowed to stand for 18 hours at 4° C. The cleaning process was performed three times, and a SA-HRP solution (100 μL) was added and allowed to permeate for 1.5 hours at room temperature (60 rpm). […] Finally, an enzyme reaction stop solution (100 μL) was added and an absorbance at 490 nm was measured with ARVO (PerkinElmer Japan Co., Ltd., Kanagawa, Japan) to calculate the concentration of a GLP-2 derivative.

solubility with respect to PBS (FIG. 1) [2]	fluorescence in brain section ([3]; 20 minutes after administration)	fluorescence in brain section ([3]; 60 minutes after administration)	amount of GLP-2 derivative in brain [4]	Substance	immobility time / anti-depressant-like effect vs control group [1]	fluorescence in brain section ([3]; 10 minutes after administration)
–	–	–	–	glucagon-like peptide-2 (HADGSFSDEMNTILDNLAARDFINWLIQTKITD; GLP-2)	did not show a significant decrease in immobility time	–
not dissolved in PBS at all	fluorescence was observed	fluorescence was not observed	below the detection limit	FFLIPKGRRRRRRRRGGHADGSFSDEMNTILDNLAARDFINWLIQTKITDC(Cam)-OH [PAS-CPP-GLP-2 (no sugar), reference compound]	–	fluorescence was observed at a region around the hippocampus
